Source: patent publication US20150017203A1, “COMBINATION PRODUCT FOR TREATING EXCESS WEIGHT AND/OR FOR IMPROVING THE FIGURE” (INSTITUT NATIONAL DE LA RECHERCHE AGRONOMIQUE - INRA, priority 2012, published 2015)

Legend:
[1] = Mice weight under high-lipid diet, 3-week pharmaco-nutritional regimen; type: in vivo; conditions: after 3-week regimen; vs control regimen
Method: (§1) 100 male mice C57 Black 6/J aged 5 weeks (January, France) were accommodated in individual cages in the pet center of the INRA center, Theix, in thermoregulated premises (20-22° C.) and submitted to alternating 12 hour-cycles of light and darkness. After a week of acclimatization under a <<control regimen>> (D12450B, Research Diet, USA), 20 mice continued this regimen for 11 weeks. The other 80 mice were fed with a ? high-lipid regimen ? (HL) (D12451, Research Diet, USA) for 8 weeks. The total calorie intake, in percentages, provided for both the <> and HL regimens 20% proteins and respectively, 70% and 35% carbohydrates and 10% and 45% lipids. […] The mice weight was measured every 2 weeks.

[2] = Body composition measurement through Echo MRI (body fat, lean body mass); type: in vivo, mice; conditions: for Total body fat vs control regimen (Echo MRI): day 80, vs mice under control regimen; for Body fat: difference with high-lipid diet alone (HL), mice, 3 weeks
Method: as §1
Body fat and lean body mass of awake mice after 15 h fasting were quantified using nuclear magnetic resonance (Echo MRI, Houston, USA) at day 80 of the experiment.

[3] = Organ and tissue weights at sacrifice (peri-epididymal adipose tissue, leg muscles, liver); type: in vivo; conditions: vs mice under control regimen
Method: as §1
(§2) Prior to being sacrificed, mice after 15 h fasting were anesthetized through barbital intraperitoneal injection (1.5 μl/g). Blood was collected in EDTA-containing specimen collectors before being centrifuged (12000 rpm, 4 min, room temperature). Plasma was thereafter collected, distributed in aliquots and frozen in liquid nitrogen, then stored at −80° C. The adipose peri-epididymal tissue, liver and leg triceps muscle (gastrocnemius muscle), tibialis and quadriceps muscles were weighted, frozen in liquid nitrogen, then stored at −80° C.

[4] = Plasma dosages (non-esterified fatty acids, triglycerides, cholesterol, glucose); type: in vivo, mice; conditions: for Cholesterolemia compared to control mice: ANOVA p=0.01
Method: as §2, with “100 male mice C57 Black 6/J aged 5 weeks (January, France) were accommodated in individual cages in the pet center of the INRA center, Theix, in thermoregulated premises (20-22° C.) and submitted to alternating 12 hour-cycles of light and darkness. […] The mice weight was measured every 2 weeks. Prior” for “Prior”

[5] = Glucose tolerance measurement (ipGTT test); type: in vivo, mice; conditions: for Glucose tolerance: difference with high-lipid diet alone (HL), mice, 3 weeks; for Glucose tolerance compared to the control regimen: ipGTT, glucose 2 mg/g i.p., vs control
Method: as §1
(§3) After a 3-week pharmaco-nutritional regimen, measurements of the insulin sensitivity and glucose tolerance were conducted respectively on 10 mice of each group after a fasting night. Insulin sensitivity measurement: basal glycemia was evaluated using a glucose meter (Glucotouch, Lifescan, USA) on blood droplets collected from the tail. An insulin dose of 0.75 mU/g of weight was administered through intraperitoneal injection and glycemia was evaluated 15, 30, 45, 60 and 120 minutes post injection. Glucose tolerance measurement: a glucose dose (2 mg/g of weight) was administered through intraperitoneal injection. Glycemia was evaluated as for the insulin sensitivity test before and 15, 30, 60 and 120 minutes post injection.
Glucose tolerance measurement (ipGTT test): glucose tolerance is defined as the ability for a mouse to normalize its glycemia when injecting glucose. It is evaluated through the calculation of the area under the curve of the glycemia evolution after an injection of glucose.

[6] = Insulin sensitivity measurement (ipITT test); type: in vivo, mice; conditions: for Insulin sensitivity: difference with high-lipid diet alone (HL), mice, 3 weeks
Method: as §1, §3

[7] = taking statin in the long term; cited from earlier work
[8] = conclusions of several clinical assays; cited from earlier work
[9] = difference with high-lipid diet alone (HL), mice, 3 weeks

| SMILES | Mice weight as compared to the controls [1] | Total body fat vs control regimen (Echo MRI) [2] | Body fat [2] [%] | Weight of peri-epididymal adipose tissue vs control regimen [3] | Plasma levels: Non esterified fatty acids [4, 9] [%] | Plasma levels: Triglycerides [4, 9] [%] | Plasma levels of non-esterified fatty acids compared to control mice ([4]; vs control mice) | Triglyceridemia compared to control mice ([4]; vs control mice) | Cholesterolemia compared to control mice ([4]; vs control mice) | Glucose tolerance [5] | Glucose tolerance compared to the control regimen [5] | Insulin sensitivity [6] | Insulin sensitivity compared to controls ([6]; ipITT, insulin 0.75 mU/g i.p., vs control) | Influence on body fat [7] | Development of type 2 diabetes [8] |
| --- | --- | --- | --- | --- | --- | --- | --- | --- | --- | --- | --- | --- | --- | --- | --- |
| NC(=O)NCCC[C@H](N)C(=O)O [L-citrulline, L-Citrulline] | significantly higher | +100% | −7 | doubled | −24 | −15 | at a similar level compared to the control mice | bring triglyceridemia back to the level of that obtained in control mice | significant increase in cholesterolemia | +7% | significant reduction of glucose tolerance | +5% | tend to be less sensitive to insulin | – | – |
| CC(C)c1c(C(=O)Nc2ccccc2)c(-c2ccccc2)c(-c2ccc(F)cc2)n1CC[C@@H](O)C[C@@H](O)CC(=O)O [Statin, Atorvastatin] | significantly higher | +87% | −13 | doubled | – | – | – | bring triglyceridemia back to the level of that obtained in control mice | significant increase in cholesterolemia | +11% | significant reduction of glucose tolerance | +31% | – | has not any positive influence on body fat | would promote the development of type 2 diabetes |
| CC(C)c1nc(N(C)S(C)(=O)=O)nc(-c2ccc(F)cc2)c1/C=C/[C@@H](O)C[C@@H](O)CC(=O)O [rosuvastatin] | – | – | – | – | – | – | – | – | – | – | – | – | – | – | would promote the development of type 2 diabetes |
